Where a name gives a salt, the structure may show the parent alone. Read-outs that look alike come from different tables or passages of the source. Values belong to the compound of their own block, whether it stands above or below them.
Columns and labels:
[1] = Titration curve of TMT-H3; format: physicochemical
Excerpt: In the sequence named, the jump are to be associated with the salts TMT-Na, TMT-Na2 and TMT-Na3.

[2] = Solubility / saturation concentration of TMT-Na salts and salt mixtures in water; format: physicochemical; settings: for solubility in water: temperature not given; for Solubility of the TMT-Na salt/-salt mixture / solubility: water; for solubility: read-out: saturation concentration of TMT-Na3 in water
Excerpt: That is, in each case, more than 2 hydrogen atoms of the TMT-H3 are replaced.

[3] = as above; format: physicochemical
[4] = Stability in storage of aqueous solutions (crystallization); format: physicochemical; settings: in words
Method: Aqueous solutions of TMT-Na3 are commercially available and are used for separating heavy metal from the flue gas wash water of garbage incinerators, waste water in the mining industry and in galvanotechnical and chemical plants. The commercially available, aqueous TMT-NA3 solution has a concentration of 15% by weight (Publication TMT 15 of the Degussa company, 3/1986). The saturation concentration of TMT-Na3 in water is approximately 16% by weight at 0° C. and approximately 25% by weight at 20° C. […] Such a crystallization makes it considerably more difficult to handle the product. If heat-insulated or heated transport and storage containers were used, TMT-Na3 solutions with a higher concentration could be considered as a commercially supplied form of this product; however, this would make the product and its use more expensive.
The object of the present invention is to provide aqueous solutions of sodium salts of trimercapto-s-triazine which have a higher concentration of active substance than current commercially available solutions. Increasing the concentration makes possible a reduction in transportation and storage costs. The solutions should be stable in storage, that is, no crystallization of the active substance or of its salt should occur during storage. […]

[5] = disclosure of DE-AS 22 40 549; cited from earlier work

Solubility of the TMT-Na salt/-salt mixture ([2]; 0° C.): 0.78 mole TMT salt/1 H2 O | Solubility of the TMT-Na salt/-salt mixture ([2]; 20° C.): 1.37 mole TMT salt/1 H2 O | solubility in water (in words) ([2]; in words): good solubility | solubility ([2]; 0° C.): ~160 mg/mL | solubility ([2]; 20° C.): ~250 mg/mL
Structure (SMILES): Sc1nc(S)nc(S)n1.[Na].[Na].[Na] [TMT-Na3, trimercapto-s-triazine trisodium salt]
stability in storage (crystallization) [4]: crystallizes if the concentration is higher | solubility of TMT-Na3 ([2]; 0° C.): approximately 0.78 mole TMT-Na3 per liter of H2 0 | solubility of TMT-Na3 ([2]; 20° C.): approximately 1.37 mole TMT-Na3 per liter of H2 0

precipitation from solution ([3]; less than 2 hydrogen atoms of trimercapto-s-triazine replaced by Na ions): precipitates | solubility in water (in words) ([2]; in words): slightly soluble in water | solubility in water [2]: approximately 3 % by weight
Structure (SMILES): Sc1nc(S)nc(S)n1 [TMT-Na, monosodium salt of trimercapto-s-triazine]
solubility in water [5]: approximately 3 % by weight

More lines, now with the values behind:

Structure (SMILES): Sc1nc(S)nc(S)n1 [TMT-H3, Trimercapto-s-triazine]
first jump of the titration curve ([1]; associated with TMT-Na): around 7 pH | second jump of the titration curve ([1]; associated with TMT-Na2): around 10.5 pH | third jump of the titration curve ([1]; associated with TMT-Na3): around 12.5 pH | solubility in water (in words) ([2]; in words): practically insoluble in water | solubility in water [2]: less than 0.5 % by weight

Structure (SMILES): Sc1nc(S)nc(S)n1 [TMT-Na2, disodium salt of trimercapto-s-triazine]
solubility in water (in words) ([2]; in words): unusually high water solubility | solubility relative to that of TMT-Na3 ([2]; in words, comparison with TMT-Na3): considerably above that of the readily soluble TMT-Na3

Structure (SMILES): Sc1nc(S)nc(S)n1 [TMT-Na2.6 H2 0, hexahydrate of trimercapto-s-triazine disodium salt]
solubility in water (in words) ([3]; in words, disodium salt): extraordinarily high solubility in water

Source: US5258515A, “Aqueous solutions of sodium salts of trimercapto-s-triazine, their preparation and use” (Degussa Aktiengesellschaft, priority 1989, dated 1993)
